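Exposure lasted 48 hours, with cells grown in 96-well plates and compounds tested at five concentrations. GI50 marks 50% less growth.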 Active and inactive are the calls of the source. Rule as the data show it: active = GI50 up to about 1.1 µM and inactive = higher.
How the values were obtained:
Assay in all cases: DTP human tumour cell line panel, 48 h
[1] = tested on: HT-29
[2] = tested on: SN12C
[3] = tested on: SR
[4] = tested on: HOP-92
[5] = tested on: OVCAR-3
[6] = tested on: NCI/ADR-RES
[7] = tested on: A549
[8] = tested on: UACC-62
[9] = tested on: SK-MEL-5
[10] = tested on: MDA-MB-435
[11] = tested on: SF-295
[12] = tested on: NCI-H23
[13] = tested on: SW-620
[14] = tested on: COLO 205
[15] = tested on: UO-31
[16] = tested on: U-251
[17] = tested on: LOX IMVI
[18] = tested on: SK-MEL-2
[19] = tested on: HCT-116
[20] = tested on: Hs-578T

Measured: GI50

Nc1c(C(=O)Nc2ccc([As](=O)(O)O)cc2)cnc2nnnn12
inactive: [1] > 100 µM | [2] > 100 µM | [3] > 100 µM | [4] > 100 µM | [5] > 100 µM | [6] > 100 µM | [7] > 100 µM | [8] > 100 µM | [9] > 100 µM | [10] > 100 µM | [11] > 100 µM | [12] > 100 µM | [13] > 100 µM | [14] > 100 µM | [15] > 100 µM | [16] > 100 µM | [17] > 100 µM | [18] > 100 µM | [19] > 100 µM

N/C(=N\c1ccc(Cl)cc1)NS(=O)(=O)c1c(C(F)(F)F)cccc1C(F)(F)F
inactive: [1] 19.8 µM | [2] 16.1 µM | [3] > 100 µM | [20] 17.9 µM | [4] 16.7 µM | [5] 16.6 µM | [6] 12.2 µM | [7] 12.6 µM | [8] 8.34 µM | [9] 17.5 µM | [11] 7.85 µM | [12] 5.58 µM | [13] 33.3 µM | [14] 11.1 µM | [15] 2.29 µM | [16] 13.5 µM | [17] 16.3 µM | [18] 12.7 µM | [19] 10 µM

CC(=O)/C(=C/n1c(=S)[nH]c2ccccc21)C(=O)Nc1ccccc1C
inactive: [1] > 100 µM | [2] > 100 µM | [4] > 100 µM | [5] > 100 µM | [6] > 100 µM | [7] > 100 µM | [9] > 100 µM | [10] > 100 µM | [11] > 100 µM | [12] > 100 µM | [13] > 100 µM | [14] > 100 µM | [15] > 100 µM | [16] > 100 µM | [17] > 100 µM | [18] > 100 µM | [19] > 100 µM

CCOc1ccccc1NC(=O)CC(C(=O)OC)C(=O)C(=O)OC (centres undefined)
inactive: [1] > 100 µM | [2] > 100 µM | [3] > 100 µM | [4] > 100 µM | [5] > 100 µM | [7] > 100 µM | [8] > 100 µM | [9] > 100 µM | [11] > 100 µM | [12] > 100 µM | [13] > 100 µM | [14] > 100 µM | [15] > 100 µM | [16] > 100 µM | [17] > 100 µM | [18] > 100 µM | [19] > 100 µM

O=S(=O)(SCc1ccccc1)C(c1ccccc1)c1ccccc1
inactive: [1] 28.6 µM | [2] 24.1 µM | [3] 15.2 µM | [4] 5.57 µM | [5] 29.1 µM | [7] 32 µM | [8] 27.5 µM | [9] 22.5 µM | [11] 44.1 µM | [12] 26.5 µM | [13] 7.4 µM | [14] 19.6 µM | [15] 64.6 µM | [16] 32.9 µM | [17] 30.4 µM | [18] 39.1 µM | [19] 33.4 µM

COc1ccc2c(c1)C/C(=C\c1cccc3ccccc13)C2=O
inactive: [1] 4.91 µM | [2] 8.87 µM | [3] 4.65 µM | [20] 84.9 µM | [5] 13.4 µM | [6] 4.66 µM | [7] 6.89 µM | [8] 12.5 µM | [9] 4.05 µM | [12] 2.84 µM | [13] 3.98 µM | [15] 44.5 µM | [16] 8.71 µM | [17] 5.07 µM

CC(C)(Br)C(Br)CCC(C)(Br)C(Br)CO (centres undefined)
inactive: [1] > 10 µM | [2] > 10 µM | [20] > 10 µM | [4] > 10 µM | [5] > 10 µM | [6] > 10 µM | [7] > 10 µM | [9] > 10 µM | [10] > 10 µM | [11] > 10 µM | [12] > 10 µM | [13] > 10 µM | [14] > 10 µM | [15] > 10 µM | [16] > 10 µM | [19] > 10 µM

CCC(C)C1=C(O)[N+]2([O-])Oc3ccc(-c4c(O)c(O)c(-c5ccc(O)cc5)c(OC(C)=O)c4OC(C)=O)cc3OC2(C(C)CC)C(=O)N1O (centres undefined)
inactive: [1] > 50 µM | [2] > 50 µM | [3] > 50 µM | [5] > 50 µM | [6] > 50 µM | [7] > 50 µM | [8] > 50 µM | [9] > 50 µM | [10] 16.8 µM | [11] > 50 µM | [12] > 50 µM | [13] > 50 µM | [14] > 50 µM | [15] > 50 µM | [16] > 50 µM | [17] 17.6 µM | [18] > 50 µM | [19] 18.2 µM

Nc1n2nc(-c3ccccc3)sc2n[n+]1CC(=O)c1ccccc1
inactive: [1] 9.53 µM | [2] 27.6 µM | [20] 47.6 µM | [5] 14.7 µM | [6] 14 µM | [7] 21.2 µM | [8] 7.06 µM | [9] 7.43 µM | [10] 2.72 µM | [11] 14 µM | [12] 13.8 µM | [13] 4.89 µM | [14] 17 µM | [15] 16.6 µM | [16] 12.6 µM | [17] 11.1 µM | [18] 38.5 µM

CC(=O)/N=S(/NC(=O)c1ccc(C)cc1)C(Cl)(Cl)Cl (centres undefined)
inactive: [1] 23.6 µM | [2] 37.9 µM | [20] 59.3 µM | [4] > 100 µM | [5] 20.9 µM | [6] 20.4 µM | [7] > 100 µM | [8] 99.3 µM | [9] 33.3 µM | [10] 19.1 µM | [11] > 100 µM | [12] 24.1 µM | [13] 15.8 µM | [14] 19.8 µM | [15] 26.1 µM | [16] 22 µM | [17] 29.7 µM | [19] 31 µM

O=C(CC/C(CC(=O)c1ccc(Br)cc1)=N\O)Nc1ccc(Cl)c(Cl)c1
inactive: [1] 43.5 µM | [2] > 100 µM | [3] 40.3 µM | [4] 68.2 µM | [5] 57.5 µM | [7] > 100 µM | [8] 27.2 µM | [9] 29.8 µM | [11] > 100 µM | [12] > 100 µM | [13] 45.2 µM | [14] 37.8 µM | [15] > 100 µM | [16] > 100 µM | [17] > 100 µM | [18] > 100 µM | [19] > 100 µM

N#Cc1nc(Cc2cccs2)oc1N
inactive: [1] > 100 µM | [2] > 100 µM | [3] > 100 µM | [20] > 100 µM | [4] > 100 µM | [7] > 100 µM | [8] > 100 µM | [9] > 100 µM | [10] > 100 µM | [13] > 100 µM | [15] 27.5 µM | [16] > 100 µM | [17] > 100 µM | [18] > 100 µM | [19] > 100 µM

Reference: ChEMBL document CHEMBL1201862, “PubChem BioAssay data set” (2004)
